Measurements published in patent EP1333824B1, “TREATMENT OF SEXUAL DYSFUNCTION WITH BOMBESIN RECEPTOR ANTAGONISTS” (Warner-Lambert Company LLC, priority 2000, dated 2002).

Key:
[1] = test system: Ovariectomised adult female Sprague Dawley rats; assay: Female rat sexual proceptivity test (time investigating male vs female stimulus); format: in vivo; details: Example 1; i.p., 3 and 10mg/kg in 50% 2-hydroxypropyl-β-cyclodextrin, 1h before tests
[2] = test system: Ovariectomised adult female Sprague Dawley rats; assay: as above; format: in vivo
Description: Ovariectomised adult female Sprague Dawley rats (180-200g, from Charles River) were housed in groups of 6 in a reversed lighting system of 12h light:dark (lights off 7.00-19.00h). Two weeks after ovariectomy they were used for sexual activity tests. The experiments started at least 5h into the dark period.
Tests were carried out in a circular arena of 90cm diameter, surrounded by a 30cm high wall. Two small cages with wire-mesh front (15x15cm) are fixed into the wall such that the front of the cage is «flush» with the wall and the 2 cages are opposite each other. They contained two stimuli animals: an intact sexually experienced male and a receptive female (ovariectomised, primed with 5µg oestradiol benzoate dissolved in corn oil and injected subcutaneously 48 hours before the test and with 0.5 mg of progesterone four hours before the test). Sexually naive test and control animals were used. Forty eight hours before the tests, both the test and control animals were primed with 5µg oestradiol benzoate. For animals used as positive controls, progesterone (0.5mg/0.1ml) was dissolved in corn oil and administered subcutaneously (s.c.), 4h before the test. Test and control animals were introduced one at a time for 10 minute periods into the arena. During the 10min test, the time that the test or positive control animal spent investigating each stimulus animal was noted. The arena was thoroughly cleaned between animals. The position of the male/female stimuli boxes was randomised between animals, in order to avoid place preference. The difference in the percentage of time spent investigating the male minus the female stimuli was calculated, out of the total time spent investigating stimuli animals. […]
Ovariectomised adult female Sprague Dawley rats (180-200g) were housed in groups of 5 in a reversed lighting system of 12h light:dark (lights off 5.00-17.00h). They were used for the experiments at least two weeks after ovariectomy. Forty eight hours before tests, the animals were primed with oestradiol benzoate (5µg/0.1ml in corn oil, s.c.). On day 1, progesterone (0.5mg/0.1ml, in corn oil, s.c.) was administered to one of the groups 4h before tests, as a positive control. […] The test lasted 10 minutes and was carried out as described before. The difference in the percentage of time spent investigating the male minus the female stimuli was calculated, out of the total time spent investigating stimuli animals. Animals were submitted to a test on day 1 and on day 15. […] On day 15 the test took place again, as described for day 1. […]

COc1ccc(C2(CNC(=O)[C@](C)(Cc3c[nH]c4ccccc34)NC(=O)Nc3ccc([N+](=O)[O-])cc3)CCCCC2)nc1 [Compound (1), (S) 3-(1H-Indol-3-yl)-N-[1-(5-methoxy-pyridin-2-yl)-cyclohexyl-methyl]-2-methyl-2-[3-(4-nitro-phenyl)-ureido]-propionamide]
MED (increase in percentage of time spent investigating the male stimulus) [1]: 10 mg/kg
percentage of time spent investigating the male stimulus ([2]; Example 1, i.p., dose-dependent 3mg/kg-10mg/kg, 1h before tests, vs vehicle): increased the percentage of time spent investigating the male stimulus
proceptivity, day 1 ([2]; Example 3, Compound (1) 15mg/kg i.p. 1h before test, progesterone 0.5mg/0.1ml s.c. 4h before, vs vehicle, P<0.01): stimulatory effect on proceptivity
body weight or general behaviour ([2]; Example 3, repeated daily administration 15mg/kg i.p. over 15 days): no changes in body weight or general behaviour
MED (increase in percentage of time spent investigating the male stimulus) ([2]; Example 4, i.c.v., 3-30µg/rat, 10min before tests): 10 µg
percentage of time spent investigating the male stimulus ([2]; Example 4, i.c.v., dose-dependent 3-30µg/rat, 10min before tests): increased the percentage of time spent investigating the male stimulus
antagonism of the inhibitory effect of NMB on proceptivity ([2]; Example 5, Compound (1) 15mg/kg i.p. 1h before i.c.v. NMB 100ng, blockade not total at this dose): prevented the inhibitory effect of NMB
